Measurements reported in ChEMBL document CHEMBL2396621, “Design, synthesis and biological evaluation of 2-mercapto-3-phenethylquinazoline bearing anilide fragments as potential antitumor agents: molecular docking study” (2013).

How the values were obtained:
Format in all cases: functional
PC-3 = assay: Cytotoxicity against human PC3 cells assessed as growth inhibition at 10 uM after 48 hrs by coulter counter analysis; conditions: PC-3, 48 h, read-out: GI
IGROV-1 = assay: Cytotoxicity against human IGROV1 cells assessed as growth inhibition at 10 uM after 48 hrs by coulter counter analysis; conditions: IGROV-1, 48 h, read-out: GI
SNB-19 = assay: Cytotoxicity against human SNB19 cells assessed as growth inhibition at 10 uM after 48 hrs by coulter counter analysis; conditions: SNB-19, 48 h, read-out: GI
MDA-MB-468 = assay: Cytotoxicity against human MDA-MB-468 cells assessed as growth inhibition at 10 uM after 48 hrs by coulter counter analysis; conditions: MDA-MB-468, 48 h, read-out: GI
SW-620 = assay: Cytotoxicity against human SW620 cells assessed as growth inhibition at 10 uM after 48 hrs by coulter counter analysis; conditions: SW-620, 48 h, read-out: GI
SNB-75 = assay: Cytotoxicity against human SNB75 cells assessed as growth inhibition at 10 uM after 48 hrs by coulter counter analysis; conditions: SNB-75, 48 h, read-out: GI
NCI-H322M = assay: Cytotoxicity against human NCI-H322M cells assessed as growth inhibition at 10 uM after 48 hrs by coulter counter analysis; conditions: read-out: GI
SK-MEL-5 = assay: Cytotoxicity against human SK-MEL-5 cells assessed as growth inhibition at 10 uM after 48 hrs by coulter counter analysis; conditions: SK-MEL-5, 48 h, read-out: GI
UACC-257 = assay: Cytotoxicity against human UACC257 cells assessed as growth inhibition at 10 uM after 48 hrs by coulter counter analysis; conditions: UACC-257, 48 h, read-out: GI
COLO 205 = assay: Cytotoxicity against human COLO205 cells assessed as growth inhibition at 10 uM after 48 hrs by coulter counter analysis; conditions: COLO 205, 48 h, read-out: GI
HCT-15 = assay: Cytotoxicity against human HCT15 cells assessed as growth inhibition at 10 uM after 48 hrs by coulter counter analysis; conditions: HCT-15, 48 h, read-out: GI
NCI-H23 = assay: Cytotoxicity against human NCI-H23 cells assessed as growth inhibition at 10 uM after 48 hrs by coulter counter analysis; conditions: NCI-H23, 48 h, read-out: GI
SF-268 = assay: Cytotoxicity against human SF268 cells assessed as growth inhibition at 10 uM after 48 hrs by coulter counter analysis; conditions: SF-268, 48 h, read-out: GI
LOX IMVI = assay: Cytotoxicity against human LOXIMVI cells assessed as growth inhibition at 10 uM after 48 hrs by coulter counter analysis; conditions: read-out: GI
OVCAR-4 = assay: Cytotoxicity against human OVCAR4 cells assessed as growth inhibition at 10 uM after 48 hrs by coulter counter analysis; conditions: OVCAR-4, 48 h, read-out: GI
NCI-H522 = assay: Cytotoxicity against human NCI-H522 cells assessed as growth inhibition at 10 uM after 48 hrs by coulter counter analysis; conditions: NCI-H522, 48 h, read-out: GI
SK-OV-3 = assay: Cytotoxicity against human SKOV3 cells assessed as growth inhibition at 10 uM after 48 hrs by coulter counter analysis; conditions: SK-OV-3, 48 h, read-out: GI
ACHN = assay: Cytotoxicity against human ACHN cells assessed as growth inhibition at 10 uM after 48 hrs by coulter counter analysis; conditions: read-out: GI
UO-31 = assay: Cytotoxicity against human UO31 cells assessed as growth inhibition at 10 uM after 48 hrs by coulter counter analysis; conditions: UO-31, 48 h, read-out: GI
OVCAR-3 = assay: Cytotoxicity against human OVCAR3 cells assessed as growth inhibition at 10 uM after 48 hrs by coulter counter analysis; conditions: OVCAR-3, 48 h, read-out: GI
T47D = assay: Cytotoxicity against human T47D cells assessed as growth inhibition at 10 uM after 48 hrs by coulter counter analysis; conditions: read-out: GI
TK-10 = assay: Cytotoxicity against human TK10 cells assessed as growth inhibition at 10 uM after 48 hrs by coulter counter analysis; conditions: TK-10, 48 h, read-out: GI
SF-295 = assay: Cytotoxicity against human SF295 cells assessed as growth inhibition at 10 uM after 48 hrs by coulter counter analysis; conditions: SF-295, 48 h, read-out: GI
DU-145 = assay: Cytotoxicity against human DU145 cells assessed as growth inhibition at 10 uM after 48 hrs by coulter counter analysis; conditions: DU-145, 48 h, read-out: GI
SN12C = assay: Cytotoxicity against human SN12C cells assessed as growth inhibition at 10 uM after 48 hrs by coulter counter analysis; conditions: read-out: GI
NCI-H460 = assay: Cytotoxicity against human NCI-H460 cells assessed as growth inhibition at 10 uM after 48 hrs by coulter counter analysis; conditions: NCI-H460, 48 h, read-out: GI
SF-539 = assay: Cytotoxicity against human SF539 cells assessed as growth inhibition at 10 uM after 48 hrs by coulter counter analysis; conditions: SF-539, 48 h, read-out: GI
KM12 = assay: Cytotoxicity against human KM12 cells assessed as growth inhibition at 10 uM after 48 hrs by coulter counter analysis; conditions: KM12, 48 h, read-out: GI
BT-549 = assay: Cytotoxicity against human BT549 cells assessed as growth inhibition at 10 uM after 48 hrs by coulter counter analysis; conditions: BT-549, 48 h, read-out: GI
HCC 2998 = assay: Cytotoxicity against human HCC2998 cells assessed as growth inhibition at 10 uM after 48 hrs by coulter counter analysis; conditions: HCC 2998, 48 h, read-out: GI
HOP-62 = assay: Cytotoxicity against human HOP62 cells assessed as growth inhibition at 10 uM after 48 hrs by coulter counter analysis; conditions: HOP-62, 48 h, read-out: GI
MDA-MB-435 = assay: Cytotoxicity against human MDA-MB-435 cells assessed as growth inhibition at 10 uM after 48 hrs by coulter counter analysis; conditions: MDA-MB-435, 48 h, read-out: GI
[1] = Cytotoxicity against human NCI-ADR-RES cells assessed as growth inhibition at 10 uM after 48 hrs by coulter counter analysis; conditions: read-out: GI
A549 = assay: Cytotoxicity against human A549 cells assessed as growth inhibition at 10 uM after 48 hrs by coulter counter analysis; conditions: A549, 48 h, read-out: GI
NCI-H226 = assay: Cytotoxicity against human NCI-H226 cells assessed as growth inhibition at 10 uM after 48 hrs by coulter counter analysis; conditions: NCI-H226, 48 h, read-out: GI
HT-29 = assay: Cytotoxicity against human HT-29 cells assessed as growth inhibition at 10 uM after 48 hrs by coulter counter analysis; conditions: HT-29, 48 h, read-out: GI
A498 = assay: Cytotoxicity against human A498 cells assessed as growth inhibition at 10 uM after 48 hrs by coulter counter analysis; conditions: A498, 48 h, read-out: GI

Row | Compound | inhibition of growth at 10 µM (PC-3) [%] | inhibition of growth at 10 µM (IGROV-1) [%] | inhibition of growth at 10 µM (SNB-19) [%] | inhibition of growth at 10 µM (MDA-MB-468) [%] | inhibition of growth at 10 µM (SW-620) [%] | inhibition of growth at 10 µM (SNB-75) [%] | inhibition of growth at 10 µM (NCI-H322M) [%] | inhibition of growth at 10 µM (SK-MEL-5) [%] | inhibition of growth at 10 µM (UACC-257) [%] | inhibition of growth at 10 µM (COLO 205) [%] | inhibition of growth at 10 µM (HCT-15) [%] | inhibition of growth at 10 µM (NCI-H23) [%] | inhibition of growth at 10 µM (SF-268) [%] | inhibition of growth at 10 µM (LOX IMVI) [%] | inhibition of growth at 10 µM (OVCAR-4) [%] | inhibition of growth at 10 µM (NCI-H522) [%] | inhibition of growth at 10 µM (SK-OV-3) [%] | inhibition of growth at 10 µM (ACHN) [%] | inhibition of growth at 10 µM (UO-31) [%] | inhibition of growth at 10 µM (OVCAR-3) [%] | further results
1 | CC(=O)c1ccc(NC(=O)CSc2nc3ccccc3c(=O)n2CCc2ccccc2)cc1 | 20 | 20 | 20 | 14 | 14 | 41 | 27 | 25 | 36 | 12 | 21 | 12 | 32 | 25 | 25 | 51 | 17 | 30 | 10 | 23 | inhibition of growth at 10 µM (T47D): 19%; inhibition of growth at 10 µM (TK-10): < 10%; inhibition of growth at 10 µM (SF-295): 21%; inhibition of growth at 10 µM (DU-145): 11%; inhibition of growth at 10 µM (SN12C): 13%; inhibition of growth at 10 µM (NCI-H460): 31%; inhibition of growth at 10 µM (SF-539): < 10%; inhibition of growth at 10 µM (KM12): 18%; inhibition of growth at 10 µM (BT-549): < 10%; inhibition of growth at 10 µM (HCC 2998): < 10%; inhibition of growth at 10 µM (HOP-62): 22%; inhibition of growth at 10 µM (MDA-MB-435): 23%; inhibition of growth at 10 µM [1]: 33%; inhibition of growth at 10 µM (A549): 29%; inhibition of growth at 10 µM (NCI-H226): 16%; inhibition of growth at 10 µM (HT-29): 12%; inhibition of growth at 10 µM (A498): < 10%
2 | O=C(CSc1nc2ccccc2c(=O)n1CCc1ccccc1)NCc1ccccc1 | 29 | 39 | 17 | < 10 | < 10 | 38 | 26 | 22 | < 10 | < 10 | 20 | 10 | 28 | 17 | 13 | 28 | 14 | 38 | 33 | 10 | inhibition of growth at 10 µM (T47D): 20%; inhibition of growth at 10 µM (TK-10): 20%; inhibition of growth at 10 µM (SF-295): 27%; inhibition of growth at 10 µM (DU-145): 13%; inhibition of growth at 10 µM (SN12C): 20%; inhibition of growth at 10 µM (NCI-H460): 29%; inhibition of growth at 10 µM (SF-539): 38%; inhibition of growth at 10 µM (KM12): < 10%; inhibition of growth at 10 µM (BT-549): < 10%; inhibition of growth at 10 µM (HCC 2998): < 10%; inhibition of growth at 10 µM (HOP-62): 36%; inhibition of growth at 10 µM (MDA-MB-435): 19%; inhibition of growth at 10 µM [1]: 19%; inhibition of growth at 10 µM (A549): 17%; inhibition of growth at 10 µM (NCI-H226): 13%; inhibition of growth at 10 µM (HT-29): < 10%; inhibition of growth at 10 µM (A498): < 10%
3 | COc1cc(NC(=O)CCSc2nc3ccccc3c(=O)n2CCc2ccccc2)cc(OC)c1OC | 25 | 21 | 12 | 27 | 14 | 38 | 28 | 31 | 72 | 20 | 18 | 28 | 26 | 54 | 51 | 52 | 44 | 21 | 22 | 11 | inhibition of growth at 10 µM (T47D): 47%; inhibition of growth at 10 µM (TK-10): 17%; inhibition of growth at 10 µM (SF-295): 10%; inhibition of growth at 10 µM (DU-145): < 10%; inhibition of growth at 10 µM (SN12C): 16%; inhibition of growth at 10 µM (NCI-H460): 17%; inhibition of growth at 10 µM (SF-539): 70%; inhibition of growth at 10 µM (KM12): 39%; inhibition of growth at 10 µM (BT-549): 13%; inhibition of growth at 10 µM (HCC 2998): < 10%; inhibition of growth at 10 µM (HOP-62): 45%; inhibition of growth at 10 µM (MDA-MB-435): 38%; inhibition of growth at 10 µM [1]: 13%; inhibition of growth at 10 µM (A549): 29%; inhibition of growth at 10 µM (NCI-H226): 10%; inhibition of growth at 10 µM (HT-29): 18%; inhibition of growth at 10 µM (A498): 37%
